Source: PubChem BioAssay (NCI)
Several values for one entry are separate records, joined by “and”; a condition that tells them apart may be missing. Equal values may be shown once.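 Exposure lasted 48 hours, with cells grown in 96-well plates and compounds tested at five concentrations. GI50: concentration for 50% inhibition of growth. The concentration for full growth arrest is given as TGI.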

Experiments:
Assay in all cases: inhibition of tumour cell growth, NCI panel, 48 h
M14 melanoma = test system: M14 melanoma
SK-MEL-28 melanoma = test system: SK-MEL-28 melanoma
NCI-H23 lung = test system: NCI-H23 lung
SK-MEL-5 melanoma = test system: SK-MEL-5 melanoma
LOX IMVI melanoma = test system: LOX IMVI melanoma
COLO 205 colon = test system: COLO 205 colon
HCT-116 colon = test system: HCT-116 colon
U251 CNS = test system: U251 CNS
T-47D breast = test system: T-47D breast
HL-60(TB) leukemia = test system: HL-60(TB) leukemia

Compound | GI50 (M14 melanoma) [µM] | TGI (M14 melanoma) [µM] | GI50 (SK-MEL-28 melanoma) [µM] | TGI (SK-MEL-28 melanoma) | GI50 (NCI-H23 lung) [µM] | TGI (NCI-H23 lung) | GI50 (SK-MEL-5 melanoma) [µM] | TGI (SK-MEL-5 melanoma) | GI50 (LOX IMVI melanoma) [µM] | TGI (LOX IMVI melanoma) [µM] | GI50 (COLO 205 colon) [µM] | TGI (COLO 205 colon) [µM] | GI50 (HCT-116 colon) [µM] | TGI (HCT-116 colon) [µM] | GI50 (U251 CNS) [µM] | TGI (U251 CNS) [µM] | GI50 (T-47D breast) [µM] | TGI (T-47D breast) [µM] | GI50 (HL-60(TB) leukemia) [µM] | TGI (HL-60(TB) leukemia) [µM]
CO[C@H]1CC(O[C@@H]2/C(C)=C/C[C@@H]3C[C@@H](C[C@]4(CC[C@H](C)[C@@H](C5CCCCC5)O4)O3)OC(=O)[C@@H]3C=C(C)/C(=N/O)[C@H]4OC/C(=C\C=C\[C@@H]2C)[C@]43O)O[C@@H](C)C1O (stereo partly specified) | 1.5 | 4.62 | 0.952 | 1.97 µM | 1.01 | 2.65 µM | 1 | 2.29 µM | 0.651 | 1.28 | 0.93 | 1.8 | 0.704 | 1.4 | 0.759 | 1.47 | 1.1 | 3.09 | 1.01 | 2.27
CC1=CC(C)(C)NN1C1=NS(=O)(=O)c2ccccc2N1C |  | > 100 |  | > 100 µM |  | > 100 µM |  | > 100 µM |  | > 100 |  | > 100 |  | > 100 |  | > 100 |  | > 100 |  | > 100
CCc1nc2ccc(N=Nc3c(O)ccc4ccccc34)cc2[nH]1 |  | 35.1 |  | 41.5 µM |  | 49.2 µM |  | 40 µM |  | 28.8 |  | 39 |  | 30.8 |  | 39.9 |  | 59.7 |  | 29.8
Cc1cc(Nc2nc(N[C@@H](C)c3ncc(F)cn3)ncc2Cl)n[nH]1 | 20.7 | > 100 | 38.1 | > 100 µM | 23.1 | > 100 µM | 26 | > 100 µM | 13.8 | > 100 | 17.8 | 48.9 | 13.3 | > 100 | 24.5 | > 100 | 22.8 | > 100 | 29.9 | > 100
O=c1c(Cl)c(Cl)cnn1CCCl |  | 11.3 |  | 4.99 µM |  | 6.46 µM |  | 15.2 µM |  | 14.3 |  | 7.69 |  | 17 |  | 12.3 |  | 14.6 |  | 5.58
Cc1cn(Cc2ccc(C34CC5CC(CC(C5)C3)C4)c(O)c2)c(=O)[nH]c1=O | 11.5 | 26.9 | 6.78 | 23.7 µM | 8.11 | 20.7 µM | 4.37 | 15.8 µM | 11.3 | 23.3 | 16.4 | 32.2 | 10.7 | 22.5 | 11.9 | 24.8 | 6.45 | 51.8 | 2.73 | 6.53
CCN(CC)CCCC(C)N/C(=C1\C(=O)NC(=O)\C1=C(/NC(C)CCCN(CC)CC)c1cccc(OC)c1)c1cccc(OC)c1 (stereo unspecified) | 0.932 | 1.75 | 0.913 | 1.67 µM | 1.19 | 3.15 µM | 0.836 | 1.54 µM | 0.676 | 1.49 | 0.728 | 1.65 | 0.45 | 3.24 | 0.844 | 1.89 | 1.3 | 3.7 | 0.968 | 2.49
CSc1nc2c(c(=O)n1C)CN(C1CCCCC1)C(=O)C(c1ccccc1)N2 (stereo unspecified) | 43.5 | > 100 | 17.1 | 83.3 µM | 51.2 | > 100 µM | 10.4 | 25.7 µM | 17.1 | > 100 | 30.9 | > 100 | 36.6 | > 100 | 41.4 | > 100 | 29.3 | > 100 | 17.5 | 67.5
Nc1ccccc1C(=O)CCC1C(=O)NC(=S)NC1=O |  | > 100 |  | > 100 µM |  | > 100 µM |  | > 100 µM |  | > 100 |  | > 100 |  | > 100 |  | > 100 |  | > 100 |  | > 100
CCN(Cc1cccc(Cl)c1)c1ccc(CO)c(Cl)c1 | 12.6 | 28.6 | 14.5 | 28.7 µM | 7.51 | 23.7 µM | 5.73 | 19.9 µM | 9.11 | 22.3 | 2.43 | 7.53 | 0.105 | 10.3 | 1.09 | 14.6 | 0.205 | 1.14 | 3.93 | 20.9
c1ccc(CNCCN(CCNCc2ccccn2)Cc2ccc3ccccc3c2)nc1 | 1.64 | 3.39 | 1.75 | 3.36 µM | 2.26 | 6.19 µM | 1.76 | 3.16 µM | 2 | 4.5 | 2.27 | 4.57 | 2.37 | 8.36 | 2.47 | 7.39 | 2.59 | 9.06 | 2.4 | 5.77
CCCCCCCC/C=C/CCCCCCCC1=NC(C)(C)CN1CCO | 1.74 | 3.21 | 1.89 | 3.39 µM | 1.84 | 3.7 µM | 2.87 | 8.4 µM | 1.55 | 2.95 | 1.66 | 3.11 | 1.59 | 2.99 | 1.62 | 2.97 | 1.94 | 4.34 | 1.74 | 3.81
C/C(=C(\c1ccc(OCCN2CCCCCC2)cc1)c1ccc(OC(=O)c2ccccc2)cc1)c1ccc(Cl)cc1 | 0.92 | 3.33 | 4.33 | 9.02 µM | 4.73 | 11 µM | 4.55 | 8.84 µM | 2.43 | 6.81 | 2.31 | 7.76 | 1.62 | 6.05 | 3.76 | 8.08 | 1.76 | 7.47 | 3.35 | 11.5
CCc1ccc(COC(=O)C2=C(C)NC(C)=C(C(=O)OCc3ccc(CC)cn3)C2C2=COCCO2)nc1 |  | 31.1 |  | 35 µM |  | 51 µM |  | 26.1 µM |  | 29.1 |  | 29.6 |  | 31 |  | 35.4 |  | 36.1 |  | 66.7
COc1cc(C2c3cc4c(cc3C(OC(=O)C[n+]3ccccc3)C3COC(=O)C23)OCO4)cc(OC)c1OC (stereo unspecified) | < 0.017 | > 100 | 53 | > 100 µM | < 0.0217 | > 100 µM | < 0.01 | < 0.01 µM | < 0.0179 | > 100 | < 0.0137 | < 0.0203 | < 0.0181 | > 100 | < 0.021 | > 100 | 41.2 | > 100 | < 0.0156 | < 0.0287
CN1CCN(Cc2ccc(NC(=O)c3cncc(C#Cc4cnc(N)c5cccnc45)c3)cc2C(F)(F)F)CC1 | 0.143 | 0.604 | 0.176 | 1.85 µM | 0.496 | > 50 µM | 0.571 | 2.13 µM | 0.159 | 0.686 | 0.0956 | 1.12 | 0.224 | 6.6 | 0.233 | > 31.5 | 0.36 | > 50 | 0.223 | 1.17
C=CCC(N[C@@H](CO)c1ccccc1)c1cn(C(=O)OCC)c2ccccc12 (stereo partly specified) | 18.1 | 34.4 | 34.1 | > 100 µM | 20.5 | 49.6 µM | 14.2 | 28.9 µM | 16.7 | 32.2 | 20.1 | 44.1 | 15.5 | 29.3 | 17.9 | 32.4 | 25.8 | > 100 | 24.1 | > 100
NS(=O)(=O)c1cc(C(=O)O)c(O)c2ccccc12 |  | > 100 |  | > 100 µM |  | > 100 µM |  | > 100 µM |  | > 100 |  | > 100 |  | > 100 |  | > 100 |  | > 100 |  | > 100
CC(=O)C1=C(O)C=C2Oc3c(C(=O)/C=C/c4cc(Cl)cc(Cl)c4)c(O)c(C)c(O)c3[C@]2(C)C1=O | 0.567 | 2.28 | 0.637 | 2.76 µM | 0.5 | 2.05 µM | 0.424 | 1.05 µM | 0.512 | 1.79 | 0.408 | 0.988 | 0.465 | 1.38 | 0.41 | 1.06 | 0.435 | 1.36 | 0.371 | 0.87
Cc1cc2c(-c3nc4ccccn4c3N)c(O)c(O)cc2c(O)c1-c1c(C)cc2c(-c3nc4ccccn4c3N)c(O)c(O)cc2c1O | 1.18 | > 25 | 1.16 | > 25 µM | 0.543 | > 25 µM | 0.554 | 1.66 µM | 0.582 | > 25 | 1.07 | > 25 | 0.163 | > 25 | 0.273 | > 25 | 0.502 | > 25 | 1.64 | > 25
O=[N+]([O-])c1cc([N+](=O)[O-])c(Nn2c3ccccc3c3ccccc32)c([N+](=O)[O-])c1 | 0.381 |  | 0.483 | 51.2 µM and 14.9 µM | 0.313 | 4.55 µM and 3.96 µM | 0.216 | 4.53 µM and 0.506 µM | 0.339 | 11.7 | 0.195 |  | 0.302 | 1.18 | 0.358 | > 100 | 0.278 |  | 0.227 | 
CC(=O)[C@H]1CCC/C=C/[C@@H]2C[C@H](O)C[C@H]2[C@H](O)/C=C/C(=O)O1 | 0.467 | > 25.2 | 0.261 | 0.923 µM | 0.527 | 5.58 µM | 0.163 | 0.318 µM | 0.212 | 0.633 | 0.264 | 0.631 | 0.337 | 1.18 | 0.913 | > 100 | 1.17 | 3.63 | 0.261 | 0.712
CCOC(=O)C(C#N)C1=CC(=O)C(=O)c2ccc(O)cc21 (stereo unspecified) |  | 51.3 |  | > 100 µM |  | 58 µM |  | > 100 µM |  | > 100 |  | > 100 |  | > 100 |  | > 100 |  | > 100 |  | > 100
COC(=O)c1oc2c(C(=O)/C=C/c3ccc(OC)cc3)c(OCCN(C)C)ccc2c1C | 10.6 | 25.5 | 7.73 | 20.9 µM | 9.76 | 26.1 µM | 10.6 | 22.4 µM | 4.52 | 17 | 4.59 | 19.3 | 4.64 | 19.7 | 5.72 | 19.3 | 3.1 | 16.8 | 1.88 | 6.01
Clc1ccccc1-c1nnc2c(Cc3ccccc3)nc3ccccc3n12 | > 60.5 | > 100 | > 48.8 | > 100 µM | > 100 | > 100 µM | 3.67 | > 100 µM | 3.5 | > 100 | > 29.6 | > 100 | 3.79 | > 100 | 4.21 | > 100 | 5.77 | > 100 | 32.5 | > 100
CC1(C)CCCC(C)(C2CCC3(C)C2C(O)CC2C4(C)CCC(O)C(C)(C)C4CCC23C)O1 (stereo unspecified) |  | > 100 |  | > 100 µM |  | > 100 µM |  | > 100 µM |  | > 100 |  | > 100 |  | > 100 |  | > 100 |  | > 100 |  | > 100
CC(=O)N1N=C(c2ccc(Nc3nc(Nc4ccc(F)cc4)nc(Nc4ccc(F)cc4)n3)cc2)CC1c1ccc(N(C)C)cc1 (stereo unspecified) | 2.79 | 9.79 | 4.33 | 19.3 µM | 4.1 | 26.7 µM | 2.83 | 13 µM | 12.2 | 24.6 | 5.73 | 22.6 | 3.6 | 14.7 | 12.6 | 25.2 | 4.5 | 37.4 | 2 | 6.12
